Values after ≈ are worked out from the molar mass of the structure shown. Read-outs that look alike come from different tables or passages of the source.
Assays:
[1] = tested on: Streptococcus pneumoniae (Klein) Chester (ATCC 49619); experiment: Antimicrobial assay, broth microdilution (CLSI), MIC; format: cell-based
Protocol: C3 derivatives were synthesized and antimicrobial activity measured against Streptococcus pneumoniae (MIC, minimum inhibitory concentration).
Bacterial Strains was used in this study is Streptococcus pneumoniae (Klein) Chester (ATCC® 49619™)
The antimicrobial activity of the compounds was determined by broth microdilution according to the Clinical & Laboratory Standards Institute (CLSI) guidelines. The test medium was cation-adjusted Mueller-Hinton broth (MH). Serial two-fold dilutions were performed for the tested chemicals starting from 256 μg/mL to 0.5 μg/mL, and the bacterial cell inoculum was adjusted to approximately 5×10^5 CFU/mL. Results were taken after 20 h of incubation at 37° C. The MIC was defined as the lowest concentration of antibiotic with no visible growth. Experiments were performed in duplicates.

β′ CH −σ^A interaction = experiment: ELISA-based binding assay using σ^A and a GST-tagged β′ subunit fragment (β′-CH); set-up: species or system Bacillus subtilis; conditions: inhibitor compounds used at 500 μM (FIG. 3)
Protocol: FIG. 3 depicts a graph showing assay results of hit compound activity determined by ELISA of the β′ CH −σ^A interaction. Inhibitor compounds C1-C7 were used at 500 μM.

[2] = ATCC49619, Table 1, Streptococcus pneumoniae ATCC 49619, 20 h at 37° C., read-out: MIC
[3] = Streptococcus pneumoniae, ATCC49619, 20 h
[4] = ATCC49619, Table 3, Streptococcus pneumoniae ATCC 49619, 20 h at 37° C., read-out: MIC

| SMILES | melting point [°C] | MIC [1, 2] [µg/mL] | MIC [1, 3] [µg/mL] | also measured |
| --- | --- | --- | --- | --- |
| Cc1occc1Sc1ccc(C(=O)c2ccccc2C(=O)O)cc1[N+](=O)[O-] [C3-16, 2-(4-((2-Methylfuran-3-yl)thio)-3-nitrobenzoyl)benzoic Acid] | 198 to 199 | 256 (≈ 668 µM) | – | – |
| Cc1cccc([N+](=O)[O-])c1Sc1ccc(C(=O)c2ccccc2C(=O)O)cc1[N+](=O)[O-] [C3-15, 2-(4-((2-Methyl-6-nitrophenyl)thio)-3-nitrobenzoyl)benzoic Acid] | 269 to 271 | – | 128 (≈ 292 µM) | – |
| Cc1ccc(Sc2ccc(C(=O)c3ccccc3C(=O)O)cc2[N+](=O)[O-])c(C)c1 [C3-12, 2-(4-((2,4-Dimethylphenyl)thio)-3-nitrobenzoyl)benzoic Acid] | 240 to 242 | – | 32 (≈ 78.5 µM) | – |
| O=C(O)c1ccccc1C(=O)c1ccc(Nc2nccs2)c([N+](=O)[O-])c1 [C3-27, 2-(3-Nitro-4-(thiazol-2-ylamino)benzoyl)benzoic Acid] | 99 to 100 | > 256 | – | – |
| O=C(O)c1ccccc1C(=O)c1ccc(Nc2ccc(Cl)c(Cl)c2)c([N+](=O)[O-])c1 [C3-23, 2-(4-((3,4-Dichlorophenyl)amino)-3-nitrobenzoyl)benzoic Acid] | 115 to 117 | – | 64 (≈ 148 µM) | – |
| Cc1cccc(Nc2ccc(C(=O)c3ccccc3C(=O)O)cc2[N+](=O)[O-])c1 [C3-18, 2-(3-Nitro-4-(m-tolylamino)benzoyl)benzoic Acid] | 90 to 92 | 128 (≈ 340 µM) | – | – |
| Nc1ccccc1Sc1ccc(C(=O)c2ccccc2C(=O)O)cc1[N+](=O)[O-] [C3-1, 2-(4-((2-Aminophenyl)thio)-3-nitrobenzoyl)benzoic Acid] | – | – | – | inhibitory activity against the binding of σ^A and β′ fragments (β′ CH −σ^A interaction): possessed inhibitory activity |
| O=C(O)c1ccccc1C(=O)c1ccc(Nc2ccccc2)c([N+](=O)[O-])c1 [C3-25, 2-(3-Nitro-4-(phenylamino)benzoyl)benzoic Acid] | 184 to 186 | – | 256 (≈ 707 µM) | – |
| O=C(O)c1ccccc1C(=O)c1ccc(Sc2ccccn2)c([N+](=O)[O-])c1 [C3-4, 2-(3-Nitro-4-(pyridin-2-ylthio)benzoyl)benzoic Acid] | 205 to 206 | > 256 | – | – |
| Nc1ccccc1Nc1ccc(C(=O)c2ccccc2C(=O)O)cc1[N+](=O)[O-] [C3-17, 2-(4-((2-Aminophenyl)amino)-3-nitrobenzoyl)benzoic Acid] | 201 to 202 | – | > 256 | – |
| O=C(O)c1ccccc1C(=O)c1ccc(Sc2ccc(Cl)cc2Cl)c([N+](=O)[O-])c1 [C3-11, 2-(4-((2,4-Dichlorophenyl)thio)-3-nitrobenzoyl)benzoic Acid] | 260 to 262 | – | 32 (≈ 71.4 µM) | – |
| O=C(O)c1ccccc1C(=O)c1ccc(Sc2ccccc2F)c([N+](=O)[O-])c1 [C3-3, 2-(4-((2-Fluorophenyl)thio)-3-nitrobenzoyl)benzoic Acid] | 175 to 176 | 128 (≈ 322 µM) | – | – |
| O=C(O)c1ccccc1C(=O)c1ccc(NCc2ccccc2)c([N+](=O)[O-])c1 [C3-29, 2-(4-(Benzylamino)-3-nitrobenzoyl)benzoic Acid] | 88 to 90 | 256 (≈ 680 µM) | – | – |
| O=C(O)c1ccccc1C(=O)c1ccc(Sc2ccc(Cl)c(Cl)c2)c([N+](=O)[O-])c1 [C3-13, 2-(4-((3,4-Dichlorophenyl)thio)-3-nitrobenzoyl)benzoic Acid] | – | – | 8 (≈ 17.8 µM) | – |
| Nc1ccccc1Sc1ccc(C2(O)c3ccccc3C(=O)N2Cc2ccccc2)cc1[N+](=O)[O-] (stereo not shown) [C3-47] | – | – | – | MIC [1, 4]: > 256 µg/mL |
| O=C(O)c1ccccc1C(=O)c1ccc(Nc2cccc3cccnc23)c([N+](=O)[O-])c1 [C3-26, 2-(3-Nitro-4-(quinolin-8-ylamino)benzoyl)benzoic Acid] | 151 to 153 | > 256 | – | – |
| CC(=O)Nc1cccc(Sc2ccc(C(=O)c3ccccc3C(=O)O)cc2[N+](=O)[O-])c1 [C3-8, 2-(4-((3-Acetamidophenyl)thio)-3-nitrobenzoyl)benzoic Acid] | 144 to 146 | 256 (≈ 587 µM) | – | – |
| CCN(CC)C(=O)c1ccc(Sc2ccc(C(=O)c3ccccc3C(=O)O)cc2[N+](=O)[O-])c([N+](=O)[O-])c1 [C3-14, 2-(4-((4-(Diethylcarbamoyl)-2-nitrophenyl)thio)-3-nitrobenzoyl)benzoic Acid] | 129 to 130 | – | 256 (≈ 489 µM) | – |
| CC(C)Nc1cccc(Sc2ccc(C(=O)c3ccccc3C(=O)O)cc2[N+](=O)[O-])c1 [C3-7, 2-(4-((3-(Isopropylamino)phenyl)thio)-3-nitrobenzoyl)benzoic Acid] | 130 to 132 | 32 (≈ 73.3 µM) | – | – |
| COc1ccc(Nc2ccc(C(=O)c3ccccc3C(=O)O)cc2[N+](=O)[O-])cc1 [C3-24, 2-(4-((4-Methoxyphenyl)amino)-3-nitrobenzoyl)benzoic Acid] | 225 to 226 | > 256 | – | – |
| NC1CCCCC1Nc1ccc(C(=O)c2ccccc2C(=O)O)cc1[N+](=O)[O-] (stereo not shown) [C3-28, 2-(4-((2-Aminocyclohexyl)amino)-3-nitrobenzoyl)benzoic Acid] | – | 256 (≈ 668 µM) | – | – |
| COc1ccccc1Sc1ccc(C(=O)c2ccccc2C(=O)O)cc1[N+](=O)[O-] [C3-2, 2-(4-((2-Methoxyphenyl)thio)-3-nitrobenzoyl)benzoic Acid] | 209 to 211 | 128 (≈ 313 µM) | – | – |
| Nc1cccc(Sc2ccc(C(=O)c3ccccc3C(=O)O)cc2[N+](=O)[O-])c1 [C3-5, 2-(4-((3-Aminophenyl)thio)-3-nitrobenzoyl)benzoic Acid] | – | – | 64 (≈ 162 µM) | – |
| Nc1ccccc1Sc1ccc(C2(O)NC(=O)c3ccccc32)cc1[N+](=O)[O-] (stereo not shown) [C3-39] | – | – | – | MIC [1, 4]: 32 µg/mL (≈ 81.3 µM) |
| O=C(O)c1ccccc1C(=O)c1ccc(Nc2cccc(CO)c2)c([N+](=O)[O-])c1 [C3-19, 2-(4-((3-(Hydroxymethyl)phenyl)amino)-3-nitrobenzoyl)benzoic Acid] | 132 to 134 | > 256 | – | – |
| Nc1ccccc1Sc1ccc(C2(O)c3ccccc3C(=O)N2c2ccccc2)cc1[N+](=O)[O-] (stereo not shown) [C3-41] | – | – | > 256 | – |
| Nc1ccccc1Sc1ccc(C2(O)c3ccccc3C(=O)N2Cc2ccccc2F)cc1[N+](=O)[O-] (stereo not shown) [C3-48] | – | – | – | MIC [1, 4]: > 256 µg/mL |
| O=C(Nc1cccc(Sc2ccc(C(=O)c3ccccc3C(=O)O)cc2[N+](=O)[O-])c1)c1ccccc1 [C3-9, 2-(4-((3-Benzamidophenyl)thio)-3-nitrobenzoyl)benzoic Acid] | 144 to 145 | 32 (≈ 64.2 µM) | – | – |
| NC(=O)c1cccc(Nc2ccc(C(=O)c3ccccc3C(=O)O)cc2[N+](=O)[O-])c1 [C3-22, 2-(4-((3-Carbamoylphenyl)amino)-3-nitrobenzoyl)benzoic Acid] | 139 to 141 | > 256 | – | – |
| CC(C)(C)c1cccc(Nc2ccc(C(=O)c3ccccc3C(=O)O)cc2[N+](=O)[O-])c1 [C3-21, 2-(4-((3-(tert-Butyl)phenyl)amino)-3-nitrobenzoyl)benzoic Acid] | 110 to 112 | 256 (≈ 612 µM) | – | – |
